doi:10.64898/2025.12.11.693803v1 (biorxiv, 2025)

Columns and labels:
IP-TOR (TOR) = IP-TOR (TOR) (Arabidopsis thaliana, UniProt Q9FR53); experiment: biochemical
SnRK1 (in IP-TOR) = target: T1, SnRK1 (in IP-TOR) (Arabidopsis thaliana, UniProt Q38997); experiment: AMARA-peptide kinase assay with [γ-32P]ATP; type: biochemical; settings: IP-TOR sample; 200 μM AMARA peptide, 20 μM ATP, 10 mM MgCl2, pH 7.5, 30 °C
T1 sequence (Q38997 1-512): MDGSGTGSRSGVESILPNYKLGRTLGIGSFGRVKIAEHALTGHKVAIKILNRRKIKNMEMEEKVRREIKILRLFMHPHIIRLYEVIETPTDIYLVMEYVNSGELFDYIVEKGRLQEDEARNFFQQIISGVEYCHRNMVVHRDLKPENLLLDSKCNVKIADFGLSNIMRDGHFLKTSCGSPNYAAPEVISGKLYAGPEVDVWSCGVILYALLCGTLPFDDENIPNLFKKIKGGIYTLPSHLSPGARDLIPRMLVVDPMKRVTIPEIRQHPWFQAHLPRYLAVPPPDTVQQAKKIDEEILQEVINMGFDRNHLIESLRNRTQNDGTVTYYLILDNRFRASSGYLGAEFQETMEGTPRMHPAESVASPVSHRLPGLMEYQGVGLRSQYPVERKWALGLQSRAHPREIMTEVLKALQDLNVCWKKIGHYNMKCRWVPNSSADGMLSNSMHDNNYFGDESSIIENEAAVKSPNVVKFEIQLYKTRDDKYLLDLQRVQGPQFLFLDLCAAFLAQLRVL

IP-TOR (TOR), sequence (Q9FR53 whole entry): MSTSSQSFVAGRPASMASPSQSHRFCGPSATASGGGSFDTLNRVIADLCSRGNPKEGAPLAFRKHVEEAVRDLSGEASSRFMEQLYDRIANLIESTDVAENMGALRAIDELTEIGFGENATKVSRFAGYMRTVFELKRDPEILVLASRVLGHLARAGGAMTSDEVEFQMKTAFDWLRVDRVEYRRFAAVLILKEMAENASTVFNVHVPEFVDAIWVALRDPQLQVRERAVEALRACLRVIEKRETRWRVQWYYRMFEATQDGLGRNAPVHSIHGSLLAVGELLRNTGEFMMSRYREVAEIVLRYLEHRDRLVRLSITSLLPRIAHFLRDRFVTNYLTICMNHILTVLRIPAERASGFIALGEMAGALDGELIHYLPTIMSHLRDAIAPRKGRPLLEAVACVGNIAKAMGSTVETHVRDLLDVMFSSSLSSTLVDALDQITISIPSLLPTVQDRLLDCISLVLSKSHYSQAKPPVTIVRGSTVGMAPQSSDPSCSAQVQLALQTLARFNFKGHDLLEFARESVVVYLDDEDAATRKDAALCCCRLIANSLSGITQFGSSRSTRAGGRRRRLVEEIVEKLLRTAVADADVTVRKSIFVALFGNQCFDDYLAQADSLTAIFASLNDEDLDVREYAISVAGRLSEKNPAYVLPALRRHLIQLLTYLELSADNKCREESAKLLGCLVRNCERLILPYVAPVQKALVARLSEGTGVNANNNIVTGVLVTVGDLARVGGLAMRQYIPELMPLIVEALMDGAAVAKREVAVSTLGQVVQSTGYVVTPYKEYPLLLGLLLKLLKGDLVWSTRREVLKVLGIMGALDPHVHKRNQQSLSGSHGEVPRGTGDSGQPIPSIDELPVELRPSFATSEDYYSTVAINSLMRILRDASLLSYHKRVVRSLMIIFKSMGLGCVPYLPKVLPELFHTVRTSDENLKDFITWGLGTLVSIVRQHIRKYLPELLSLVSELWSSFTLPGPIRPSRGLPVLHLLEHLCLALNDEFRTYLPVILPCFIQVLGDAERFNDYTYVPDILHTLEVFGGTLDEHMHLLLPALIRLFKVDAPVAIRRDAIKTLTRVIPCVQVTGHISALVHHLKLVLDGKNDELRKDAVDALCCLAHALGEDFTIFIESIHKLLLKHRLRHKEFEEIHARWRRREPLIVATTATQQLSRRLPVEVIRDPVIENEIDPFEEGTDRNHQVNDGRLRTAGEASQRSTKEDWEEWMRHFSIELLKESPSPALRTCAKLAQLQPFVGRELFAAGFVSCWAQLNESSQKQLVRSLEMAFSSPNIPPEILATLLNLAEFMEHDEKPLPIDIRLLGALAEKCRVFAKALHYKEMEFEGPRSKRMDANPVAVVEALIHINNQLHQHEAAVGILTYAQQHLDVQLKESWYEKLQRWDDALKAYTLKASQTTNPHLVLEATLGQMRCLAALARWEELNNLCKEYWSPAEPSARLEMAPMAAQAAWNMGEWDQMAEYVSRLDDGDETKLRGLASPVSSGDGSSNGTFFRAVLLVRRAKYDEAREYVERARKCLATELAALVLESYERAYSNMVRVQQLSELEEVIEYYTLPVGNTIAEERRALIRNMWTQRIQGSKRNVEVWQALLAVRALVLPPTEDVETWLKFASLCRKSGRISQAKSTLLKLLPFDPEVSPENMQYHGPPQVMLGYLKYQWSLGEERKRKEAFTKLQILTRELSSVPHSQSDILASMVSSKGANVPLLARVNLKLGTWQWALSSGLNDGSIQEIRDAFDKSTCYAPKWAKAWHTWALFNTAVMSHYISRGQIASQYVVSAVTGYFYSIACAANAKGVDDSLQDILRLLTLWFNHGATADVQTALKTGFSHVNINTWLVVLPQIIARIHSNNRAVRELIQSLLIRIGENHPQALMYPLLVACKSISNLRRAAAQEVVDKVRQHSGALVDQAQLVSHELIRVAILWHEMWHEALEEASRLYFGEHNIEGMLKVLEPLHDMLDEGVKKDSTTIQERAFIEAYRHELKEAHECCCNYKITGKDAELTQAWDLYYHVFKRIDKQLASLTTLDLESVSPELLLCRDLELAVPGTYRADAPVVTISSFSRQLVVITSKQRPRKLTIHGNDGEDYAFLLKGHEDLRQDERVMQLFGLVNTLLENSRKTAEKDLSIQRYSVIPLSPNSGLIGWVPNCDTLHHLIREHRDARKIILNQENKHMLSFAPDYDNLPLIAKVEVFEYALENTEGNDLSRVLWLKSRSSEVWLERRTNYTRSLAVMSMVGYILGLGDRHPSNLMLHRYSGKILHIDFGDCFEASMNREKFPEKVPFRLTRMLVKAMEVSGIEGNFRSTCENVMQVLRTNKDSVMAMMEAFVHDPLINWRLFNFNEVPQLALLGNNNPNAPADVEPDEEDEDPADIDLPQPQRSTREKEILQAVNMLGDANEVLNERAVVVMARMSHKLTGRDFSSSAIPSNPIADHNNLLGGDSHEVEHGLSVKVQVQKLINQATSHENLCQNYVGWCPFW

| SMILES | Kd (IP-TOR (TOR)) [µM] | % reduction of activity at 1 mM (SnRK1 (in IP-TOR)) [%] |
| --- | --- | --- |
| Nc1ncnc2c1ncn2[C@@H]1O[C@H](COP(=O)(O)OP(=O)(O)OP(=O)(O)O)[C@@H](O)[C@H]1O [ATP] | 5.89 ± 0.83 |  |
| O=P(O)(O)OC[C@H]1O[C@H](O[C@H]2O[C@H](CO)[C@@H](O)[C@H](O)[C@H]2O)[C@H](O)[C@@H](O)[C@@H]1O [T6P, Trehalose 6-phosphate] |  | > 50 |
